Inhibition data for 12 compounds are collected here from US10435399B2, “HDAC6 inhibitory heterocyclic compound” (TAKEDA PHARMACEUTICAL COMPANY LIMITED, priority 2017, dated 2019).

In the test the target is T1, HDAC6 enzyme (Homo sapiens, UniProt Q9UBN7).
T1 construct: transducing full length HDAC6 gene into Sf-9 insect cells; GST; purchased SignalChem; host or cells: Sf-9 insect cells
T1 sequence (Q9UBN7 1-1215): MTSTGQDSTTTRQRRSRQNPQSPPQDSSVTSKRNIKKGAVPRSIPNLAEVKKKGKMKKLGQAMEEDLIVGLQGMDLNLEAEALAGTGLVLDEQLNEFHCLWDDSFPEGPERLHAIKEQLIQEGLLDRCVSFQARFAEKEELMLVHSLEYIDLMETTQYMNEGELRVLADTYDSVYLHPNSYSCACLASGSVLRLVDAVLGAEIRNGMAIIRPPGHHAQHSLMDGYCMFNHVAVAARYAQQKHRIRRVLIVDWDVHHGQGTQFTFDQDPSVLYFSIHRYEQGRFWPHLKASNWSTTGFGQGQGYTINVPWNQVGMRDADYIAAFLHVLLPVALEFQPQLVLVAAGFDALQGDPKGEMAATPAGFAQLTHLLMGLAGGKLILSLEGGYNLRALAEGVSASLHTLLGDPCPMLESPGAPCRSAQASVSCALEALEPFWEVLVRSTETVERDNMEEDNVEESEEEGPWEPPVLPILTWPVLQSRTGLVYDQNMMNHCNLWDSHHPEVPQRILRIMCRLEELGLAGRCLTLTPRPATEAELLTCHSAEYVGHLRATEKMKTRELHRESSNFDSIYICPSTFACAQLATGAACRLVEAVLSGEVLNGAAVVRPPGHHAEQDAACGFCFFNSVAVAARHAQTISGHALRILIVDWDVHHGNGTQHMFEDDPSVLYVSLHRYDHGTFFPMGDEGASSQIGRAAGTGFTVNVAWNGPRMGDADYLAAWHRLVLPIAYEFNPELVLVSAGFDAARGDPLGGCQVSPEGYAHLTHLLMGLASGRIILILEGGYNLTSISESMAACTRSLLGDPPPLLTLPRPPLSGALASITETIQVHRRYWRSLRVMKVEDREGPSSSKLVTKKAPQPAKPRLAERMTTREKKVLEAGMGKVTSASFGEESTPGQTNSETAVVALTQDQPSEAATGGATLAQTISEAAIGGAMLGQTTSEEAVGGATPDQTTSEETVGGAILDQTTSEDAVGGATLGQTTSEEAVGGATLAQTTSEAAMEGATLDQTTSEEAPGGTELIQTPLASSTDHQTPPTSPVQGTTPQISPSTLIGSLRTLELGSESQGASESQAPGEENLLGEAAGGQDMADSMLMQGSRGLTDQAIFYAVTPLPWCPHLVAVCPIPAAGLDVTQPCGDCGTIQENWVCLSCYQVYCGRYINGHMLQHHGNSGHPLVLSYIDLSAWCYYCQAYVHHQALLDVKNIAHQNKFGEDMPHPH
As to the kind of experiment: HDAC6 enzyme inhibitory activity (HDAC-Glo I/II Assay kit). Format: biochemical. Conditions: 10 μM; wells without enzyme = 100% inhibition; read-out: HDAC6 inhibitory rate (%) (10 μM). Summed up:
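Sf-9-derived GST-purified full-length HDAC6 + cpd, 60 min RT, 24 mM Tris pH 7.5/0.6 mM glutathione/0.01% Tween-20; add HDAC-Glo substrate-developer, 20 min RT; luminescence. No-enzyme = 100% inhibition.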
`O=C(N[C@@H]1CCCC[C@H]1N1Cc2ncc(-c3nnc(C(F)F)o3)cc2C1=O)c1cccc(Cl)c1` [Example 163, 3-chloro-N-((1R,2R)-2-(3-(5-(difluoromethyl)-1,3,4-oxadiazol-2-yl)-5-oxo-5,7-dihydro-6H-pyrrolo[3,4-b]pyridin-6-yl)cyclohexyl)benzamide]: the inhibition at 10 µM worked out at 98%.
Turning to `O=C(N[C@@H]1CCCC[C@H]1N1Cc2ncc(-c3nnc(C(F)F)o3)cc2C1=O)c1ccccn1` [Example 164, N-((1R,2R)-2-(3-(5-(difluoromethyl)-1,3,4-oxadiazol-2-yl)-5-oxo-5,7-dihydro-6H-pyrrolo[3,4-b]pyridin-6-yl)cyclohexyl)pyridine-2-carboxamide], the inhibition at 10 µM came to 99%.
The value for `O=C(N[C@@H]1CCCC[C@H]1N1Cc2c(F)cc(-c3nnc(C(F)F)o3)cc2C1=O)C(F)F` [Example 165, N-((1R,2R)-2-(6-(5-(difluoromethyl)-1,3,4-oxadiazol-2-yl)-4-fluoro-1-oxo-1,3-dihydro-2H-isoindol-2-yl)cyclohexyl)-2,2-difluoroacetamide] was 99%; that for `CCC(=O)N[C@@H]1CCCC[C@H]1N1C(=O)c2ccc(-c3nnc(C(F)F)o3)cc2C1=O` [Example 166, N-((1R,2R)-2-(5-(5-(difluoromethyl)-1,3,4-oxadiazol-2-yl)-1,3-dioxo-1,3-dihydro-2H-isoindol-2-yl)cyclohexyl)propanamide] was 97%.
For `CC(C)(C)OC(=O)N[C@@H]1COCC[C@H]1N1Cc2c(F)cc(-c3nnc(C(F)F)o3)cc2C1=O` [Example 167, tert-butyl ((3S,4R)-4-(6-(5-(difluoromethyl)-1,3,4-oxadiazol-2-yl)-4-fluoro-1-oxo-1,3-dihydro-2H-isoindol-2-yl)tetrahydro-2H-pyran-3-yl)carbamate], the inhibition at 10 µM worked out at 100%.
Regarding `CC(C)(C)OC(=O)N1CCOC[C@@H]1CN1Cc2c(F)cc(-c3nnc(C(F)F)o3)cc2C1=O` [Example 168, tert-butyl (3S)-3-((6-(5-(difluoromethyl)-1,3,4-oxadiazol-2-yl)-4-fluoro-1-oxo-1,3-dihydro-2H-isoindol-2-yl)methyl)morpholine-4-carboxylate], the inhibition at 10 µM came to 100%.
As to `N#Cc1cccc(-c2ccccc2N2Cc3ccc(-c4nnc(C(F)F)o4)cc3C2=O)c1` [Example 169, 2′-(6-(5-(difluoromethyl)-1,3,4-oxadiazol-2-yl)-1-oxo-1,3-dihydro-2H-isoindol-2-yl)biphenyl-3-carbonitrile], the inhibition at 10 µM is 101%.
The value for `COc1cccc(-c2ccccc2N2Cc3ccc(-c4nnc(C(F)F)o4)cc3C2=O)c1` [Example 170, 6-(5-(difluoromethyl)-1,3,4-oxadiazol-2-yl)-2-(3′-methoxybiphenyl-2-yl)isoindolin-1-one] was 102%; that for `O=C1c2cc(-c3nnc(C(F)F)o3)ccc2CN1c1ccccc1-c1cccc(C(F)(F)F)c1` [Example 171, 6-(5-(difluoromethyl)-1,3,4-oxadiazol-2-yl)-2-(3′-(trifluoromethyl)biphenyl-2-yl)isoindolin-1-one] was 101%.
Consider `CS(=O)(=O)c1cccc(-c2ccccc2N2Cc3ccc(-c4nnc(C(F)F)o4)cc3C2=O)c1` [Example 172, 6-(5-(difluoromethyl)-1,3,4-oxadiazol-2-yl)-2-(3′-(methylsulfonyl)biphenyl-2-yl)isoindolin-1-one], for which the inhibition at 10 µM was determined as 100%.
On to `N[C@@H]1CCCC[C@H]1N1Cc2c(F)cc(-c3nnc(C(F)F)o3)cc2C1=O` [Example 173, 2-((1R,2R)-2-aminocyclohexyl)-6-(5-(difluoromethyl)-1,3,4-oxadiazol-2-yl)-4-fluoroisoindolin-1-one], for which the inhibition at 10 µM turned out to be 91%.
With `O=C1c2cc(-c3nnc(C(F)F)o3)cc(F)c2CN1[C@@H]1COCC[C@H]1NC(=O)C(F)(F)C(F)(F)F` [Example 174, N-((3S,4R)-3-(6-(5-(difluoromethyl)-1,3,4-oxadiazol-2-yl)-4-fluoro-1-oxo-1,3-dihydro-2H-isoindol-2-yl)tetrahydro-2H-pyran-4-yl)-2,2,3,3,3-pentafluoropropanamide], the inhibition at 10 µM was determined as 102%.
